Results on 23 compounds are retold here after patent publication US8759520B2, “Compounds for treating cancer” (Boehringer Ingelheim International GmbH, priority 2008, dated 2014).

By IC50 is commonly meant the concentration that gives 50% inhibition.

Chain of Bcl-2 (P10415 whole entry, species assumed, the tested form may be a part): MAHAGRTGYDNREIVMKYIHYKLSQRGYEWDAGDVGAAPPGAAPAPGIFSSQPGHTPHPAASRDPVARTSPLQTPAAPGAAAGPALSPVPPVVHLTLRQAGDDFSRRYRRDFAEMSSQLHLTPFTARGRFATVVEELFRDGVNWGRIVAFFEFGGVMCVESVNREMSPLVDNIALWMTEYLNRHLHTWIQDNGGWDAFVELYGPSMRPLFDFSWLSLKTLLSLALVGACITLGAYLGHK

The experiment deals with Bcl-2 (Homo sapiens, UniProt P10415). In words: Homogeneous HTS assay for inhibitors of the Bcl-2 : Bak (72-87) BH3 domain interaction, fluorescence polarisation (2D-FIDA). The format is binding. Conditions: fluorescence polarisation, fluorescent labelled Bak BH3 domain derived peptide; read-out: IC50 [μM] Bcl-2. From the text:
FIG. 1 is a schematic drawing of the Bcl-2: Bak (72-87) interaction assay based on fluorescence polarisation.
The homogeneous HTS assay for inhibitors of the Bcl-2 is shown schematically in FIG. 1. BH3 domain interaction is based on fluorescence polarisation. The inherent rotational diffusion of the Bak BH3 domain derived fluorescent labelled peptide decreases upon binding to Bc1-2. This shift in rotational diffusion is quantitated using the two-dimensional fluorescence intensity distribution analysis (2D-FIDA; Kask et al. 2000, Biophys. J. 78: 1703-1713).
Two different BH3 domain derived peptide ligands were synthesised and subsequently fluorescently labelled: • a 16mer peptide covering amino acids 72-87 of the Bak protein; this peptide had been used by Wang and co-workers and Holinger and coworkers in their Bcl-2 protein binding studies; Wang and co-workers reported an equilibrium binding constant KD of ˜0.2 μM to Bcl-2 protein; • peptide sequence: GQVGRQLAIIGDDINR—N (Wang et al. 2002, Proc. Natl. Acad. Sci. U.S.A. 97: 7124-7129; Holinger et al. 1999, J. Biol. Chem. 274: 13298-13304).
Background: Polarisation of emitted light reports the rotation of a fluorescent probe.
With `Cc1ccc2c(c1)n(Cc1ccc(Br)cc1)c(=N)n2CCCOc1ccc(F)cc1` [Compound 58, 3-(4-Bromo-benzyl)-1-[3-(4-fluoro-phenoxy)-propyl]-5-methyl-1,3-dihydro-benzoimidazol-2-ylideneamine], the IC50 was in the range of 11 to 100 µM. As to `N=c1n(CCCOc2ccc(F)cc2)c2ccc(F)cc2n1Cc1ccc(Br)cc1` [Compound 59, 3-(4-Bromo-benzyl)-5-fluoro-1-[3-(4-fluoro-phenoxy)-propyl]-1,3-dihydro-benzoimidazol-2-ylideneamine], the IC50 is 11 to 100 µM.

As to `N=c1n(CCCOc2ccc(F)cc2)c2cc(C(F)(F)F)ccc2n1Cc1ccc(Br)cc1` [Compound 60, 1-(4-Bromo-benzyl)-3-[3-(4-fluoro-phenoxy)-propyl]-5-trifluoromethyl-1,3-dihydro-benzoimidazol-2-ylideneamine], the IC50 was in the range of 11 to 100 µM.

Regarding `N=c1n(CCCOc2ccc(F)cc2)c2cc(F)ccc2n1Cc1ccc(Br)cc1` [Compound 61, 1-(4-Bromo-benzyl)-5-fluoro-3-[3-(4-fluoro-phenoxy)-propyl]-1,3-dihydro-benzoimidazol-2-ylideneamine], the IC50 was 11 to 100 µM.

Regarding `Cc1ccc2c(c1)n(Cc1ccc(N3CCN(Cc4ccccc4-c4ccccc4)CC3)cc1)c(=N)n2CCCOc1ccc(F)cc1` [Compound 62, 3-[4-(4-Biphenyl-2-ylmethyl-piperazin-1-yl)-benzyl]-1-[3-(4-fluoro-phenoxy)-propyl]-5-methyl-1,3-dihydro-benzoimidazol-2-ylideneamine], the IC50 is under 10 µM.

As for `N=c1n(CCCOc2ccc(F)cc2)c2ccc(F)cc2n1Cc1ccc(N2CCN(Cc3ccccc3-c3ccccc3)CC2)cc1` [Compound 63, 3-[4-(4-Biphenyl-2-ylmethyl-piperazin-1-yl)-benzyl]-5-fluoro-1-[3-(4-fluoro-phenoxy)-propyl]-1,3-dihydro-benzoimidazol-2-ylideneamine], the IC50 fell in the range of 11 to 100 µM. As for `CC1(C)CCC(c2ccc(Cl)cc2)=C(CN2CCN(c3ccc(Cn4c(=N)n(CCCOc5ccc(F)cc5)c5ccc(F)cc54)cc3)CC2)C1` [Compound 64, 3-(4-{4-[2-(4-Chloro-phenyl)-5,5-dimethyl-cyclohex-1-enylmethyl]-piperazin-1-yl}-benzyl)-5-fluoro-1-[3-(4-fluoro-phenoxy)-propyl]-1,3-dihydro-benzoimidazol-2-ylideneamine], the IC50 was under 10 µM. As to `CCOC(=O)c1cccc(OCCCn2c(=N)n(Cc3ccc(Br)cc3)c3ccccc32)c1` [Compound 65, 3-{3-[3-(4-Bromo-benzyl)-2-imino-2,3-dihydro-benzoimidazol-1-yl]-propoxy}-benzoic acid ethyl ester], the IC50 was 11 to 100 µM. Consider `COC(=O)c1ccc(OCCCn2c(=N)n(Cc3ccc(Br)cc3)c3ccccc32)cc1` [Compound 66, 4-{3-[3-(4-Bromo-benzyl)-2-imino-2,3-dihydro-benzoimidazol-1-yl]-propoxy}-benzoic acid methyl ester], for which the IC50 lay in the range of 11 to 100 µM.

Regarding `COC(=O)c1ccc(OCCCn2c(=N)n(Cc3cccc(Br)c3)c3ccccc32)cc1` [Compound 67, 4-{3-[3-(3-Bromo-benzyl)-2-imino-2,3-dihydro-benzoimidazol-1-yl]-propoxy}-benzoic acid methyl ester], the IC50 fell in the range of 11 to 100 µM. Consider `CCOC(=O)c1cccc(OCCCn2c(=N)n(Cc3cccc(Br)c3)c3ccccc32)c1` [Compound 68, 3-{3-[3-(3-Bromo-benzyl)-2-imino-2,3-dihydro-benzoimidazol-1-yl]-propoxy}-benzoic acid ethyl ester], for which the IC50 lay in the range of 11 to 100 µM. As to `CCOC(=O)c1cccc(OCCCn2c(=N)n(Cc3ccc(N4CCN(Cc5ccccc5-c5ccccc5)CC4)cc3)c3ccccc32)c1` [Compound 69, 3-(3-{3-[4-(4-Biphenyl-2-ylmethyl-piperazin-1-yl)-benzyl]-2-imino-2,3-dihydro-benzoimidazol-1-yl}-propoxy)-benzoic acid ethyl ester], the IC50 is under 10 µM. For the compound `N=c1n(CCCOc2cccc(C(=O)O)c2)c2ccccc2n1Cc1ccc(N2CCN(Cc3ccccc3-c3ccccc3)CC2)cc1` [Compound 70, 3-(3-{3-[4-(4-Biphenyl-2-ylmethyl-piperazin-1-yl)-benzyl]-2-imino-2,3-dihydro-benzoimidazol-1-yl}-propoxy)-benzoic acid], the IC50 was under 10 µM. Regarding `CCOC(=O)c1cccc(OCCCn2c(=N)n(Cc3ccccc3)c3ccccc32)c1` [Compound 71, 3-[3-(3-Benzyl-2-imino-2,3-dihydro-benzoimidazol-1-yl)-propoxy]-benzoic acid ethyl ester], the IC50 fell in the range of 11 to 100 µM. As for `N=c1n(CCCOc2ccc(F)cc2)c2ccccc2n1Cc1cccc(C(=O)O)c1` [Compound 72, 3-{3-[3-(4-Fluoro-phenoxy)-propyl]-2-imino-2,3-dihydro-benzoimidazol-1-ylmethyl}-benzoic acid], the figure is 11 to 100 µM; as for `CCOC(=O)c1cccc(OCCCn2c(=N)n(Cc3ccc(N4CCN(Cc5ccccc5-c5ccc(Cl)cc5)CC4)cc3)c3ccccc32)c1` [Compound 73, 3-[3-(3-{4-[4-(4′-Chloro-biphenyl-2-ylmethyl)-piperazin-1-yl]-benzyl}-2-imino-2,3-dihydro-benzoimidazol-1-yl)-propoxy]-benzoic acid ethyl ester], under 10 µM; as for `N=c1n(CCCOc2cccc(C(=O)O)c2)c2ccccc2n1Cc1ccc(N2CCN(Cc3ccccc3-c3ccc(Cl)cc3)CC2)cc1` [Compound 74, 3-[3-(3-{4-[4-(4′-Chloro-biphenyl-2-ylmethyl)-piperazin-1-yl]-benzyl}-2-imino-2,3-dihydro-benzoimidazol-1-yl)-propoxy]-benzoic acid], under 10 µM. Turning to `CC1(C)CCC(c2ccc(Cl)cc2)=C(CN2CCN(c3cccc(Cn4c(=N)n(CCCOc5cccc(C(=O)O)c5)c5ccccc54)c3)CC2)C1` [Compound 75, 3-{3-[3-(3-{4-[2-(4-Chloro-phenyl)-5,5-dimethyl-cyclohex-1-enylmethyl]-piperazin-1-yl}-benzyl)-2-imino-2,3-dihydro-benzoimidazol-1-yl]-propoxy}-benzoic acid], the IC50 was under 10 µM. For the compound `N=c1n(Cc2cccc(Br)c2)c2ccccc2n1CC(O)COc1ccc(F)cc1` (centres unmarked) [Compound 76, 1-[3-(3-Bromo-benzyl)-2-imino-2,3-dihydro-benzoimidazol-1-yl]-3-(4-fluoro-phenoxy)-propan-2-ol], the IC50 fell in the range of 11 to 100 µM. For `N=c1n(Cc2ccc(Br)cc2)c2ccccc2n1CC(O)COc1ccc(F)cc1` (centres unmarked) [Compound 77, 1-[3-(4-Bromo-benzyl)-2-imino-2,3-dihydro-benzoimidazol-1-yl]-3-(4-fluoro-phenoxy)-propan-2-ol], the IC50 was under 10 µM. In the case of `N=c1n(Cc2ccccc2)c2ccccc2n1CC(O)COc1ccccc1` (centres unmarked) [Compound 78, 1-(3-Benzyl-2-imino-2,3-dihydro-benzoimidazol-1-yl)-3-phenoxy-propan-2-ol], the IC50 lay in the range of 11 to 100 µM. For the compound `Cc1ccccc1OCC(O)Cn1c(=N)n(Cc2ccccc2)c2ccccc21` (centres unmarked) [Compound 79, 1-(3-Benzyl-2-imino-2,3-dihydro-benzoimidazol-1-yl)-3-o-tolyloxy-propan-2-ol], the IC50 fell in the range of 11 to 100 µM. Regarding `N=c1n(Cc2ccccc2)c2ccccc2n1CC(O)COc1ccc(Cl)cc1` (centres unmarked) [Compound 80, 1-(3-Benzyl-2-imino-2,3-dihydro-benzoimidazol-1-yl)-3-(4-chloro-phenoxy)-propan-2-ol], the IC50 fell in the range of 11 to 100 µM.
